According to the supplement of paper PMC11061612:

Key:
Assay in all cases: Bliss excess, mean over the matrix (fraction); higher = more synergy
[1] = tested on: HT-144 (Melanoma)
Outline: (§1)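 Cell lines grown in DMEM/F12 or RPMI with 10% FBS were plated in 1536-well plates and held 24 hours at 37°C, 5% CO2 before 72 hours of exposure to two-drug dose matrices, with DMSO typically at 0.2%. CellTiter-Glo 2.0 luminescence gave viability, which was converted to inhibition. Vehicle wells were set to 0 and blank wells to 1. Combination Emax is the second-highest inhibition in the matrix, and Bliss excess is the observed combination effect minus the expected EA + EB − EA·EB, where EA and EB are the single-agent effects.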

[2] = tested on: BT-474 (Breast Carcinoma)
Outline: as §1

[3] = tested on: ATN-1 (T-Lymphoblastic Leukemia)
Outline: as §1

[4] = tested on: NCI-H1975 (Lung Adenocarcinoma)
Outline: as §1

[5] = tested on: GCIY (Gastric Carcinoma)
Outline: as §1

[6] = tested on: NCI-H2009 (Lung Adenocarcinoma)
Outline: as §1

[7] = tested on: NCI-H1435 (Non-Small Cell Lung Carcinoma)
Outline: as §1

[8] = tested on: KNS-62 (Squamous Cell Lung Carcinoma)
Outline: as §1

[9] = tested on: SK-N-DZ (Neuroblastoma)
Outline: as §1

[10] = tested on: C32 (Melanoma)
Outline: as §1

[11] = tested on: GRANTA-519 (B-Cell Non-Hodgkin's Lymphoma)
Outline: as §1

[12] = tested on: CAL-85-1 (Breast Carcinoma)
Outline: as §1

[13] = tested on: NCI-H1048 (Small Cell Lung Carcinoma)
Outline: as §1

[14] = tested on: A375 (Melanoma)
Outline: as §1

[15] = tested on: NTERA-2-cl-D1 (Other Solid Carcinomas)
Outline: as §1

[16] = tested on: HT-1197 (Bladder Carcinoma)
Outline: as §1

[17] = tested on: TK (B-Cell Non-Hodgkin's Lymphoma)
Outline: as §1

[18] = tested on: JJN-3 (Plasma Cell Myeloma)
Outline: as §1

[19] = tested on: OCI-M1 (Acute Myeloid Leukemia)
Outline: as §1

[20] = tested on: L-363 (Plasma Cell Myeloma)
Outline: as §1

**Q.** Which Bliss excess [1] does the source give for `COc1cc2c(cc1OCCCCCOc1cc3c(cc1OC)C(=O)N1C=C(C)C[C@H]1C=N3)N=C[C@@H]1CC(C)=CN1C2=O` [SG3199] + O=C(c1cc(Cc2n[nH]c(=O)c3ccccc23)ccc1F)N1CCN(C(=O)C2CC2)CC1 [Olaparib] (first compound max 0.001 µM, 7x7, partner max 10 µM) here?
**A.** Its Bliss excess is -0.0443.

**Q.** What about the Bliss excess [2] of the same molecule?
**A.** The Bliss excess was -0.0487.

**Q.** What about the Bliss excess [3] of the same molecule?
**A.** The Bliss excess was -0.0249.

**Q.** What about the Bliss excess [4] of the same molecule?
**A.** The Bliss excess was -0.0171.

**Q.** And the Bliss excess [5]?
**A.** The Bliss excess was -0.0152.

**Q.** And the Bliss excess [6]?
**A.** The Bliss excess was -0.0297.

**Q.** And the Bliss excess [7]?
**A.** Its Bliss excess is -0.0584.

**Q.** What about the Bliss excess [8] of the same molecule?
**A.** The Bliss excess was -0.0464.

**Q.** And the Bliss excess [9]?
**A.** Its Bliss excess is -0.0199.

**Q.** And the Bliss excess [10]?
**A.** Its Bliss excess is -0.0373.

**Q.** And the Bliss excess [11]?
**A.** Its Bliss excess is -0.0226.

**Q.** What about the Bliss excess [12] of the same molecule?
**A.** The Bliss excess was -0.0407.

**Q.** And the Bliss excess [13]?
**A.** The Bliss excess was -0.0432.

**Q.** What about the Bliss excess [14] of the same molecule?
**A.** Its Bliss excess is -0.0304.

**Q.** What about the Bliss excess [15] of the same molecule?
**A.** The Bliss excess was -0.0586.

**Q.** What about the Bliss excess [16] of the same molecule?
**A.** The Bliss excess was -0.028.

**Q.** What about the Bliss excess [17] of the same molecule?
**A.** Its Bliss excess is -0.0114.

**Q.** And the Bliss excess [18]?
**A.** The Bliss excess was 0.0128.

**Q.** What about the Bliss excess [19] of the same molecule?
**A.** Its Bliss excess is -0.0065.

**Q.** And the Bliss excess [20]?
**A.** Its Bliss excess is -0.0123.

**Q.** With `C[C@@H](c1ccc2nccn2c1)n1nnc2ncc(-c3cnn(C)c3)nc21` [Savolitinib] + CC1(C)CCC(CN2CCN(c3ccc(C(=O)NS(=O)(=O)c4ccc(NCC5CCOCC5)c([N+](=O)[O-])c4)c(Oc4cnc5[nH]ccc5c4)c3)CC2)=C(c2ccc(Cl)cc2)C1 [Venetoclax] (first compound max 1 µM, 7x7, partner max 1 µM) as the molecule, how does the Bliss excess [1] read?
**A.** Its Bliss excess is -0.0569.

**Q.** And the Bliss excess [2]?
**A.** The Bliss excess was -0.0682.

**Q.** And the Bliss excess [3]?
**A.** The Bliss excess was -0.0192.

**Q.** What about the Bliss excess [4] of the same molecule?
**A.** The Bliss excess was -0.0329.

**Q.** What about the Bliss excess [5] of the same molecule?
**A.** The Bliss excess was -0.0732.

**Q.** What about the Bliss excess [6] of the same molecule?
**A.** The Bliss excess was -0.041.

**Q.** And the Bliss excess [7]?
**A.** The Bliss excess was -0.0034.

**Q.** What about the Bliss excess [8] of the same molecule?
**A.** The Bliss excess was -0.0616.

**Q.** And the Bliss excess [9]?
**A.** The Bliss excess was -0.0158.

**Q.** And the Bliss excess [10]?
**A.** The Bliss excess was -0.0338.

**Q.** And the Bliss excess [11]?
**A.** Its Bliss excess is -0.0822.

**Q.** What about the Bliss excess [12] of the same molecule?
**A.** Its Bliss excess is -0.0468.

**Q.** And the Bliss excess [13]?
**A.** Its Bliss excess is -0.0419.

**Q.** What about the Bliss excess [14] of the same molecule?
**A.** The Bliss excess was -0.0463.

**Q.** And the Bliss excess [15]?
**A.** The Bliss excess was -0.0678.

**Q.** What about the Bliss excess [16] of the same molecule?
**A.** Its Bliss excess is -0.0534.

**Q.** And the Bliss excess [17]?
**A.** The Bliss excess was -0.0258.

**Q.** What about the Bliss excess [18] of the same molecule?
**A.** Its Bliss excess is -0.012.

**Q.** And the Bliss excess [19]?
**A.** The Bliss excess was -0.0215.

**Q.** What about the Bliss excess [20] of the same molecule?
**A.** Its Bliss excess is -0.0159.

**Q.** What does the source list for `C[C@@H](c1ccc2nccn2c1)n1nnc2ncc(-c3cnn(C)c3)nc21` [Savolitinib] + Cc1c2c(nn1C)CSCc1cc(n(C)n1)CSc1cc(c3ccccc3c1)OCCCc1c(C(=O)O)n(C)c3c-2c(Cl)ccc13 [AZD5991] (first compound max 1 µM, 7x7, partner max 1 µM)?
**A.** Bliss excess [1]: -0.054; Bliss excess [2]: -0.0595; Bliss excess [3]: -0.0293; Bliss excess [4]: -0.0275; Bliss excess [5]: -0.0423; Bliss excess [6]: -0.0063; Bliss excess [7]: -0.0263; Bliss excess [8]: -0.0471; Bliss excess [9]: 0.002; Bliss excess [10]: -0.0065; Bliss excess [11]: -0.0338; Bliss excess [12]: -0.0286; Bliss excess [13]: 0.0012; Bliss excess [14]: -0.0271; Bliss excess [15]: -0.015; Bliss excess [16]: -0.0356; Bliss excess [17]: -0.0262; Bliss excess [18]: -0.0384; Bliss excess [19]: 0.0026; Bliss excess [20]: -0.0203
